Our source for the IC50 values is US4681893A, “Trans-6-[2-(3- or 4-carboxamido-substituted pyrrol-1-yl)alkyl]-4-hydroxypyran-2-one inhibitors of cholesterol synthesis” (Warner-Lambert Company, priority 1986, dated 1987).

Test [1] relates to biosynthesis of cholesterol (sterol synthesis) in rat liver homogenate. Kind of test: CSI screen: inhibition of sterol synthesis (incorporation of cholesterol-14C-acetate into nonsaponifiable lipid) by rat liver homogenate. It counts as biochemical. Conditions: one-hour period, cholestyramine-fed rats, read-out: IC50 (Micromoles/liter) CSI. As to the method:
The ability of compounds of the present invention to inhibit the biosynthesis of cholesterol was measured by two methods. A first method (designated CSI screen) utilized the procedure described by R. E. Dugan et al., Archiv. Biochem. Biophys., (1972), 152, 21-27. In this method, the level of HMG-CoA enzyme activity in standard laboratory rats is increased by feeding the rats a chow diet containing 5% cholestyramine for four days, after which the rats are sacrificed.
The rat livers are homogenized, and the incorporation of cholesterol-^14 C-acetate into nonsaponifiable lipid by the rat liver homogenate is measured. The micromolar concentration of compound required for 50% inhibition of sterol synthesis over a one-hour period is measured, and expressed as an IC50 value.

The target in test [2] is T1, HMG-CoA reductase (Rattus norvegicus, UniProt P51639).
T1 sequence (P51639 1-887): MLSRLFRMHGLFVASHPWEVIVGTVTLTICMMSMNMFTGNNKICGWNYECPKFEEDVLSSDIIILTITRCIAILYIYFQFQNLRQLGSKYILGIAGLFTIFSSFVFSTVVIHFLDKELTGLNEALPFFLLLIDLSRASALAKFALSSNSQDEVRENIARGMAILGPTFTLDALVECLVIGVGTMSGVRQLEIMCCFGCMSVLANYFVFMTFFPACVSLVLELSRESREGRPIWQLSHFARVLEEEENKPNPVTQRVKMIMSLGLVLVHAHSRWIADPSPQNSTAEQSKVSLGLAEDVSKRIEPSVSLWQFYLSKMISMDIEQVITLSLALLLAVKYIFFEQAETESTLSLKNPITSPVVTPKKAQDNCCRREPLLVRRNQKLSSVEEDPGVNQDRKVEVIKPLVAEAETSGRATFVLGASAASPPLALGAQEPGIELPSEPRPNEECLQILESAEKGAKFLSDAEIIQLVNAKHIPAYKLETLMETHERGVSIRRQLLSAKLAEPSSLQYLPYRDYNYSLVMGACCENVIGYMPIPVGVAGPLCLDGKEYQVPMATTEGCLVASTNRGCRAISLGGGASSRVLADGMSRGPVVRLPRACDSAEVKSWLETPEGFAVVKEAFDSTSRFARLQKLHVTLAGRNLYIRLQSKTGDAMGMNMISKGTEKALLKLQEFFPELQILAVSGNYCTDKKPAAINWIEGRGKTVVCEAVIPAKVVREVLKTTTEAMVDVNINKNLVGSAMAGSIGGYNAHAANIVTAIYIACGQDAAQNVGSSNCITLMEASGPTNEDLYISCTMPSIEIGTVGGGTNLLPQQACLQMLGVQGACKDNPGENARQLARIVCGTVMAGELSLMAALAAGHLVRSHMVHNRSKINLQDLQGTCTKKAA
Kind of test: COR screen: conversion of 14C-HMG-CoA to 14C-mevalonate by a purified HMG-CoA reductase preparation. It counts as biochemical. Conditions: purified enzyme preparation of HMG-CoA reductase, read-out: IC50 (Micromoles/liter) COR. The procedure: A second method (designated COR screen) employed the procedure detailed by T. Kita, et al., J. Clin. Invest., (1980), 66: 1094-1100. In this method, the amount of ^14 C-HMG-CoA converted to ^14 C-mevalonate in the presence of a purified enzyme preparation of HMG-CoA reductase was measured. The micromolar concentration of compound required for 50% inhibition of cholesterol synthesis was measured and recorded as an IC50 value.

pIC50: −log10 of the molar value.

On to `CC(C)c1c(C(=O)Nc2ccccc2)c(-c2ccccc2)c(-c2ccc(F)cc2)n1CC[C@H]1C[C@H](O)CC(=O)O1` (relative stereo) [Compound 1, trans-5-(4-fluorophenyl)-2-(1-methylethyl)-N,4-diphenyl-1-[2-(tetrahydro-4-hydroxy-6-oxo-2H-pyran-2-yl)ethyl]-1H-pyrrole-3-carboxamide], for which the pIC50 is 7.46 in test [1] and 7.30 in test [2].

Turning to `O=C1C[C@@H](O)C[C@H](CCn2c(-c3ccc(F)cc3)c(C(=O)Nc3ccccc3)c(-c3ccccc3)c2C(F)(F)F)O1` (relative stereo) [Compound 2, trans-2-(4-fluorophenyl)-N,4-diphenyl-1-[2-(tetrahydro-4-hydroxy-6-oxo-2H-pyran-2-yl)ethyl]-5-(trifluoromethyl)-pyrrole-3-carboxamide], the pIC50 in test [1] and in test [2] was 6.40 each time. Turning to `O=C1C[C@@H](O)C[C@H](CCn2c(-c3ccc(F)cc3)c(-c3ccccc3)c(C(=O)Nc3ccccc3)c2C(F)(F)F)O1` (relative stereo) [Compound 3, trans-5-(4-fluorophenyl)-N,4-diphenyl-1-[2-(tetrahydro-4-hydroxy-6-oxo-2H-pyran-2-yl)ethyl]-2-(trifluoromethyl)-pyrrole-3-carboxamide], the pIC50 is 7.74 in test [1] and 7.70 in test [2]. As to `CC[C@H](C)C(=O)O[C@H]1CCC=C2C=C[C@H](C)[C@H](CC[C@@H]3C[C@@H](O)CC(=O)O3)[C@H]21` [Compactin, reference compound], the pIC50 in test [1] is 7.59.
